Test results as given in US8987314B2, “Amide, urea or sulfone amide linked benzothiazole inhibitors of endothelial lipase” (Bristol-Myers Squibb Company, priority 2012, dated 2015).
Where two headings read alike, the source gives them in different places.

Columns and labels:
[1] = target: Endothelial lipase (EL) (Homo sapiens (Human), UniProt Q9Y5X9); assay: EL assay: endothelial lipase activity with fluorescent substrate A10070 in DMPG vesicles; type: biochemical
How it was run: (§1)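 Substrate A10070 sits in sonicated DMPG vesicles at 0.11 mole fraction. Lipase and compound preincubated 30 min, 37° C, in HEPES pH 8.0 buffer with CaCl2.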

[2] = target: hepatic lipase (HL) (Homo sapiens (Human), UniProt P11150); assay: HL assay: hepatic lipase activity with fluorescent substrate A10070 in DMPG vesicles; type: biochemical
How it was run: as §1

Sequence of hepatic lipase (HL) (P11150 23-499, species assumed): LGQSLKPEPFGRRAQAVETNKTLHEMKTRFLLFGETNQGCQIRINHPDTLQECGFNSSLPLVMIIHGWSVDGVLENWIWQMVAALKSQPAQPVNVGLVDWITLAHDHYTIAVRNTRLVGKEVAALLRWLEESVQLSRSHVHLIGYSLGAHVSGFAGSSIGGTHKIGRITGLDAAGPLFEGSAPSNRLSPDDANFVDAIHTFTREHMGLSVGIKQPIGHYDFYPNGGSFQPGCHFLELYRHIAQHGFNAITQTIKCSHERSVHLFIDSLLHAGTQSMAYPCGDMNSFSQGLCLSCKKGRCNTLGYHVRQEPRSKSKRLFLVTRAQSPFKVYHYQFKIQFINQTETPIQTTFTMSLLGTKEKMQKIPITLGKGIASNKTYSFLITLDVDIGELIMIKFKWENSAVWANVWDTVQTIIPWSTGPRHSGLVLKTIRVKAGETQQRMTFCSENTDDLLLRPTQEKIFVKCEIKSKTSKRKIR
Sequence of Endothelial lipase (EL) (Q9Y5X9 21-500): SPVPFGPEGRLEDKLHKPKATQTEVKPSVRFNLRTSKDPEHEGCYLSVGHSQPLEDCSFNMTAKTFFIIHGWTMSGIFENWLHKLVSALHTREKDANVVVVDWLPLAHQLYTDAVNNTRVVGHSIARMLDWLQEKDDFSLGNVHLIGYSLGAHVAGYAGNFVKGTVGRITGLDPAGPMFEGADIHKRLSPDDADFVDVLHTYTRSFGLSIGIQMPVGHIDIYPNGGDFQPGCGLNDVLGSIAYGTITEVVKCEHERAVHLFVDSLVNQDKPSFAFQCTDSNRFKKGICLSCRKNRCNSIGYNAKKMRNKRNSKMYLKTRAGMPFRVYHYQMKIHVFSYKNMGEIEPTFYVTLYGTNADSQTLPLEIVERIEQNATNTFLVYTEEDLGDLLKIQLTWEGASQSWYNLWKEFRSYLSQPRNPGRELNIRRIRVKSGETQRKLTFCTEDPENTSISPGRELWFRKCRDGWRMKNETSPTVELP

Structure (SMILES) | IC50 [1] | IC50 [2] | IC50 ([1]; EL from conditioned media of HT-1080 cells, 30 min incubation with compound at 37° C., A10070/DMPG vesicles) | IC50 ([2]; HL partially purified from conditioned media of COS cells, 30 min incubation with compound at 37° C., A10070/DMPG vesicles)
NS(=O)(=O)CCNC(=O)C(c1nc2ccc(-c3ccc(C(F)(F)F)nc3)cc2s1)S(=O)(=O)CCN1CCOCC1 (stereo not shown) [Example B316, 2-[2-(morpholin-4-yl)ethanesulfonyl]-N-(2-sulfamoylethyl)-2-{6-[6-(trifluoromethyl)pyridin-3-yl]-1,3-benzothiazol-2-yl}acetamide] | 145 nM | 399 nM | – | –
CC(C)(C)OC(=O)c1ccc2nc(C(C(=O)NCCS(N)(=O)=O)S(=O)(=O)CCC(F)(F)F)sc2c1 (stereo not shown) [Example B196, tert-Butyl 2-(2-oxo-2-((2-sulfamoylethyl)amino)-1-((3,3-trifluoropropyl)sulfonyl)ethyl)benzo[d]thiazole-6-carboxylate] | – | – | 65 nM | 379 nM
CS(=O)(=O)C(C(=O)NCCS(N)(=O)=O)c1nc2ccc(-c3ccc(OCCN4CCCCC4)cc3)cc2s1 (stereo not shown) [Example B42, 2-(methylsulfonyl)-2-(6-(4-(2-(1-piperidinyl)ethoxy)phen-yl)-1,3-benzothiazol-2-yl)-N-(2-sulfamoylethyl)a-cetamide] | < 10 nM | 10 nM | – | –
COCCS(=O)(=O)C(C(=O)NCCS(N)(=O)=O)c1nc2ccc(Br)cc2s1 (stereo not shown) [Example B124, 2-(6-bromo-1,3-benzothiazol-2-yl)-2-((2-methoxyethyl)sulfonyl)-N-(2-sulfamoylethyl)a-cetamide] | 26 nM | 830 nM | – | –
Cc1cc2nc(C(C(=O)NCCS(N)(=O)=O)S(=O)(=O)CC(C)C)sc2cc1-c1ccc(F)nc1 (stereo not shown) [Example B131, 2-(6-(6-fluoro-3-pyridinyl)-5-methyl-1,3-benzothiazol-2-yl)-2-(isobutylsulfonyl)-N-(2-sulfamoylethyl)acetamide] | < 10 nM | 12 nM | – | –
C[C@H]1CN(C(=O)c2ccc(-c3ccc4nc(C(C(=O)NCCS(N)(=O)=O)S(=O)(=O)CC5CC5)sc4c3)cc2)CCO1 (stereo partly drawn) [Example B251, 2-cyclopropylmethane-sulfonyl-2-(6-{4-[(2S)-2-methylmorpholine-4-carbonyl]phenyl}-1,3-benzothiazol-2-yl)-N-(2-sulfamoylethyl)acetamide] | 2.6 nM | 363 nM | – | –
NS(=O)(=O)CCNC(=O)C(c1nc2cc(-c3ccc(F)nc3)ccc2s1)S(=O)(=O)CCC(F)(F)F (stereo not shown) [Example B311, 2-[5-(6-fluoropyridin-3-yl)-1,3-benzothiazol-2-yl]-N-(2-sulfamoylethyl)-2-(3,3,3-trifluoropropane-sulfonyl)acetamide] | 3.1 nM | 24.2 nM | – | –
COCCN(C)C(=O)c1ccc(-c2ccc3nc(C(C(=O)NCCS(N)(=O)=O)S(=O)(=O)CCC(F)(F)F)sc3c2)cc1 (stereo not shown) [Example B290, N-(2-methoxyethyl)-N-methyl-4-(2-{[(2-sulfa-moylethyl)carbamoyl](3,3,3-trifluoropropane-sulfonyl)methyl}-1,3-benzothiazol-6-yl)ben-zamide] | 12.1 nM | 114 nM | – | –
NS(=O)(=O)CCNC(=O)C(c1nc2ccc(-c3cccc(C(=O)N4CC(F)(F)C4)c3)cc2s1)S(=O)(=O)CCC(F)(F)F (stereo not shown) [Example B334, 2-{6-[3-(3,3-difluoro-azetidine-1-carbonyl)phen-yl]-1,3-benzothiazol-2-yl}-N-(2-sulfamoyl-ethyl)-2-(3,3,3-trifluoro-propanesulfonyl)acetamide] | 14.2 nM | 60.4 nM | – | –

Continued, values first:

IC50 [1] | IC50 [2] | IC50 ([1]; EL from conditioned media of HT-1080 cells, 30 min incubation with compound at 37° C., A10070/DMPG vesicles) | IC50 ([2]; HL partially purified from conditioned media of COS cells, 30 min incubation with compound at 37° C., A10070/DMPG vesicles) | Structure (SMILES)
< 10 nM | 61 nM | – | – | NS(=O)(=O)CCNC(=O)C(c1nc2ccc(-c3ccc(CCO)cc3)cc2s1)S(=O)(=O)CC1CC1 (stereo not shown) [Example B60, 2-((cyclopropylmethyl)sul-fonyl)-2-(6-(4-(2-hydroxyethyl)phenyl)-1,3-benzothiazol-2-yl)-N-(2-sulfamoylethyl)acetamide]
8.2 nM | 828 nM | – | – | Cn1nccc1-c1ccc2sc(C(C(=O)NCCS(N)(=O)=O)S(C)(=O)=O)nc2c1 (stereo not shown) [Example B384, 2-methanesulfonyl-2-[5-(1-methyl-1H-pyrazol-5-yl)-1,3-benzothiazol-2-yl]-N-(2-sulfamoylethyl)a-cetamide]
< 10 nM | < 10 nM | – | – | CC(C)(C)OC(=O)c1ccc(-c2ccc3nc(C(C(=O)NCCS(N)(=O)=O)S(C)(=O)=O)sc3c2)cc1 (stereo not shown) [Example B156, tert-butyl 4-(2-(1-(methylsulfonyl)-2-oxo-2-(2-sulfamoylethylamino)eth-yl)benzo[d]thiazol-6-yl)benzoate]
< 10 nM | 8330 nM | – | – | COCCNC(=O)c1ccc(-c2ccc3nc(C(C(=O)NCCS(N)(=O)=O)S(=O)(=O)Cc4ccc(F)cc4)sc3c2)cc1 (stereo not shown) [Example B112, 4-(2-(1-((4-fluorobenzyl)sul-fonyl)-2-oxo-2-((2-sulfamoylethyl)amino)eth-yl)-1,3-benzothiazol-6-yl)-N-(2-methoxyethyl)ben-zamide]
3.8 nM | 149 nM | – | – | COCCS(=O)(=O)C(C(=O)NCCS(N)(=O)=O)c1nc2ccc(-c3ccc(C(=O)N4CC[C@H](OC)C4)cc3)cc2s1 (stereo partly drawn) [Example B306, 2-(2-methoxyethane-sulfonyl)-2-(6-{4-[(3S)-3-methoxypyrrolidine-1-carbonyl]phenyl}-1,3-benzothiazol-2-yl)-N-(2-sulfamoylethyl)acetamide]
1.5 nM | 136 nM | – | – | NS(=O)(=O)CCNC(=O)C(c1nc2ccc(-c3cccc(C(=O)N4CCC(O)CC4)c3)cc2s1)S(=O)(=O)CCC(F)(F)F (stereo not shown) [Example B332, 2-{6-[3-(4-hydroxy-piperidine-1-carbonyl)phen-yl]-1,3-benzothiazol-2-yl}-N-(2-sulfamoyl-ethyl)-2-(3,3,3-trifluoro-propanesulfonyl)acetamide]
3.1 nM | 36.5 nM | – | – | CC(C)(C)OC(=O)N1CC=C(c2ccc3sc(C(C(=O)NCCS(N)(=O)=O)S(C)(=O)=O)nc3c2)CC1 (stereo not shown) [Example B382, tert-butyl 4-(2-{methanesulfonyl[(2-sulfa-moylethyl)carbamoyl]meth-yl}-1,3-benzothiazol-5-yl)-1,2,3,6-tetrahydropyridine-1-carboxylate]
< 10 nM | 398 nM | – | – | CS(=O)(=O)C(C(=O)NCCS(N)(=O)=O)c1nc2ccc(-c3cccc(O)n3)cc2s1 (stereo not shown) [Example B188, 2-(methylsulfonyl)-2-(6-(6-oxo-1,6-dihydro-2-pyridinyl)-1,3-benzothiazol-2-yl)-N-(2-sulfamoylethyl)acetamide]
16 nM | 2090 nM | – | – | NS(=O)(=O)CCNC(=O)C(c1nc2ccc(-c3cncnc3)cc2s1)S(=O)(=O)CCC(F)(F)F (stereo not shown) [Example B139, 2-(6-(5-Pyrimidinyl)-1,3-benzothiazol-2-yl)-N-(2-sulfamoylethyl)-2-((3,3,3-trifluoropropyl)sulfonyl)a-cetamide]
< 10 nM | < 10 nM | – | – | CCS(=O)(=O)C(C(=O)NCCS(N)(=O)=O)c1nc2ccc(-c3ccccc3)cc2s1 (stereo not shown) [Example B105, 2-(ethylsulfonyl)-2-(6-phenyl-1,3-benzothiazol-2-yl)-N-(2-sulfamoylethyl)a-cetamide]
< 10 nM | 60 nM | – | – | COCCS(=O)(=O)C(C(=O)NCCS(N)(=O)=O)c1nc2ccc(-c3ccc(C(=O)N4CCC(F)(F)C4)cc3)cc2s1 (stereo not shown) [Example B168, 2-(6-(4-((3,3-difluoro-1-pyrrolidinyl)carbonyl)phen-yl)-1,3-benzothiazol-2-yl)-2-((2-methoxyethyl)sul-fonyl)-N-(2-sulfamoyl-ethyl)acetamide]
